Source: US20150118306A1, “COMPOSITIONS COMPRISING SULFORAPHANE OR A SULFORAPHANE PRECURSOR AND A MILK THISTLE EXTRACT OR POWDER” (Nutramax Laboratories, Inc., priority 2012, published 2015)

Experiments:
[1] = tested on: myrosinase; test: Equimolar conversion of glucoraphanin to sulforaphane by myrosinase, HPLC (Example 4); format: biochemical, broccoli
Experimental: A two-part experiment was conducted to further elucidate the role of ascorbic acid in modulating myrosinase activity. […] A control sample contained no ascorbic acid, and the enzymatic conversion proceeded unassisted by a co-factor. PART 1. […] PART 2. While keeping the amount of broccoli seed extract fixed at 250 mg, the concentration of ascorbic acid was varied from 0.4 mmol/Liter to 3.8 mmol/Liter.

[2] = tested on: myrosinase; test: Conversion of glucoraphanin to sulforaphane in simulated intestinal fluid (Example 5); format: biochemical, broccoli; details: 38° C., ascorbic acid 0.25 to 1.00 mmol/Liter, 2 hours, FIG. 4
Experimental: Simulated Intestinal Fluid (SIF) powder, a commercially supplied concentrate closely approximating the human intestinal content in terms of composition, pH and ionic strength, was used. The experiment utilized a USP Dissolution Apparatus 2 (paddles), where into six dissolution vessels 500 mL of Simulated Intestinal Fluid was dispensed, along with 150 mg of freeze-dried broccoli sprout powder as a source of myrosinase. […] Aliquots were withdrawn every 15 minutes, and assayed for sulforaphane.

[3] = tested on: heme oxygenase-1 (HO-1); details: oral administration; mammary epithelium; Sprague-Dawley rats; cited from earlier work
[4] = tested on: mammary tumors; details: Sprague-Dawley rats; cited from earlier work
[5] = tested on: HepG2 cells; test: Glutathione levels in HepG2 cell lysates, o-phthalaldehyde fluorescence (Example 6); format: cell-based, human; details: alone or combined
Experimental: The following study was conducted to determine the effect of the combination of sulforaphane and silibinin on glutathione levels. Glutathione plays an important role in the body, as it can serve as an antioxidant, detoxifier, and immunity enhancer. Decreased levels of glutathione can cause a patient to be susceptible to oxidative stress, illness, and cancer. Therefore, an increase in glutathione levels is a beneficial effect.
In the study, the human liver cancer cell line, HepG2 cells were treated with DMSO (vehicle control), sulforaphane (SFN), silibinin (Silib), or the combination of sulforaphane and silibinin, for 24 hours. Cell lysates were collected and glutathione levels were measured using o-phthalaldehyde (OPT) as a fluorescent reagent. FIG. 5 and FIG. 6 show the results of the study.
In Part 1 of the study, the effect of 0.5 μM SFN was compared to various concentrations of silibinin and to the combination of 0.5 μM SFN and silibinin at various concentrations. […] An increase in glutathione levels is a beneficial effect. The results are depicted in FIG. 5.
In Part 2 of the study, the effect of 2 μM SFN was compared to various concentrations of silibinin and to the combination of 2 μM SFN and silibinin at various concentrations. […] An increase in glutathione levels is a beneficial effect to detoxify cells. The results are depicted in FIG. 6.

[6] = tested on: NAD(P)H:quinine oxidoreductase (NQO1); details: oral administration; mammary epithelium; Sprague-Dawley rats; cited from earlier work

| Compound | Modulatory effect of increasing ascorbic acid concentration on myrosinase activity ([1]; Part 2: 250 mg broccoli seed extract, ascorbic acid 0.4 to 3.8 mmol/Liter) | Yield of sulforaphane versus ascorbic acid concentration [2] | Elevated immunostaining of HO-1 enzyme [3] [fold] | Formation of mammary tumors [4] | Glutathione levels compared to DMSO (vehicle) control ([5]; Part 1, 24 hours: 0.5 μM SFN, 100, 200, 300 μM Silib, FIG. 5) | Glutathione levels compared to the control ([5]; Part 2, 24 hours: 2 μM SFN, 100, 300 μM Silib, FIG. 6) | Stoichiometry of enzymatic conversion of glucoraphanin to sulforaphane ([1]; control sample without ascorbic acid) | Increase in NQO1 enzymatic activity [6] [fold] |
| --- | --- | --- | --- | --- | --- | --- | --- | --- |
| O=C1O[C@H]([C@@H](O)CO)C(O)=C1O [Ascorbic Acid, ascorbic acid] | linear, increase in myrosinase-promoted conversion of glucoraphanin to sulforaphane is observed to about 2 mmol/L | direct correlation between larger yield of sulforaphane and higher concentrations of ascorbic acid | – | – | – | – | – | – |
| C[S+]([O-])CCCCN=C=S (stereo not drawn) [sulforaphane, 1-isothiocyanato-4-methylsulfinylbutane] | – | – | 4 | effective in blocking the formation of mammary tumors | remained the same | remained the same | – | – |
| C[S+]([O-])CCCC/C(=N\OS(=O)(=O)O)S[C@@H]1O[C@H](CO)[C@@H](O)[C@H](O)[C@H]1O (stereo partly drawn) [glucoraphanin, 1-S-[(1E)-5-(methylsulfinyl)-N-(sulfonatooxy)pentanimidoyl]-1-thio-β-D-glucopyranose] | – | – | 4 | – | – | – | equimolar conversion of glucoraphanin to sulforaphane | 3 |
